Data taken from US11447470B2, “Pyrimidinone-containing compound, preparation method thereof, pharmaceutical composition and application thereof” (YUNNAN UNIVERSITY, priority 2018, dated 2022).
Where two headings read alike, the source gives them in different places.

Experiments:
Format in all cases: cell-based
[1] = Cytotoxicity experiment (MTT method) on C8166 cells; details: human
Procedure: (§1) C8166 cells infected with HIV-1 were used for determining the anti-HIV biological activity at the cellular level. The specific method was described below.
(§2) Cytotoxicity experiment: The toxicity of the compounds on C8166 cells was determined by MTT method. In 96-well cell culture plates, the compounds were subjected to 5-fold serial dilution and 100 μL of C8166 cell suspension (4×10^5/mL) was added into each well. Triplicate wells were set for each concentration. […] The cells were incubated at 37° C. in a 5% CO2 incubator for three days, followed by the addition of MTT solution into each well, and then the cells were incubated at 37° C. for 4 hours. 10% SDS-50% DMF was added into each well and the cells were incubated at 37° C. in a 5% CO2 incubator overnight. After mixing evenly, the OD values were measured by BIO-TEK ELx800 ELISA instrument (determination wavelength: 570 nm; reference wavelength: 630 nm).

C8166 cells = test: as above
Procedure: as §1, §2

HIV-1IIIB = test: Syncytium inhibition experiment, C8166 cells infected with HIV-1IIIB; details: Human immunodeficiency virus 1, 72 h; HIV-1IIIB (MOI=0.04) in C8166 cells, syncytium count, three days
Procedure: as §1
Syncytium inhibition experiment: 100 μL of C8166 cell suspension (4×10^5/mL) was seeded into each well of 96-well cell culture plates containing 5-fold serial dilutions of the compounds, followed by addition of HIV-1IIIB diluted supernatant (MOI=0.04). Triplicate wells were set for each serial concentration. […] The cells were cultured at 37° C. in a 5% CO2 incubator for three days. The number of the syncytia was counted in five non-overlapping fields of view by using an inverted microscope (100×).

[2] = C8166 cells, MTT, three days, read-out: CC50

In the case of `CCc1c(Cc2ccccc2)nc(SCc2cc(-c3ccc(F)cc3)[nH]n2)[nH]c1=O` [Compound I-49], the CC50 at 3 days [1] is reported as > 200 µM, the CC50 (C8166 cells; human, 3 days) is reported as > 200 µM and the EC50 (HIV-1IIIB) is reported as 0.837 µM.
For `CCc1c(CC2CCCCC2)nc(SCc2n[nH]c(-c3ccc(Cl)c(Cl)c3)c2Cl)[nH]c1=O` [Compound I-13], the CC50 at 3 days ([1]; C8166 cells in vitro, read-out: CC50 values on C8166 cells) was > 200 µM, the CC50 (C8166 cells; [2]) was > 200 µM and the EC50 (HIV-1IIIB) was 0.349 µM.
With `CCc1c(Cc2ccccc2)nc(SCc2n[nH]c(-c3ccc(F)c(F)c3)c2Cl)[nH]c1=O` [Compound I-53] the CC50 at 3 days [1] was > 200 µM, the CC50 (C8166 cells; human, 3 days) was > 200 µM and the EC50 (HIV-1IIIB) was 0.141 µM.
With `CCc1c(Cc2c(Cl)cccc2Cl)nc(SCc2n[nH]c(-c3ccc(F)c(F)c3)c2Cl)[nH]c1=O` [Compound I-55] the CC50 at 3 days [1] was > 200 µM, the CC50 (C8166 cells; human, 3 days) was > 200 µM and the EC50 (HIV-1IIIB) was 0.7 µM.
In the case of `COc1ccc(-c2cc(CSc3nc(CC4CCCCC4)c(C(C)C)c(=O)[nH]3)n[nH]2)cc1` [Compound I-40], the CC50 at 3 days [1] is reported as > 200 µM, the CC50 (C8166 cells; human, 3 days) is reported as > 200 µM and the EC50 (HIV-1IIIB) is reported as 0.012 µM.
`O=c1cc(CC2CCCCC2)nc(SCc2n[nH]c(-c3ccc(F)c(F)c3)c2Cl)[nH]1` [Compound I-54] gave a CC50 at 3 days [1] of 89 µM and an EC50 (HIV-1IIIB) of 3.88 µM.
In the case of `CCc1c(Cc2ccccc2)nc(SCc2cc(-c3ccc(F)c(F)c3)[nH]n2)[nH]c1=O` [Compound I-58], the CC50 at 3 days [1] is reported as 81 µM and the EC50 (HIV-1IIIB) is reported as 0.4 µM.
`CCc1c(CC2CCCCC2)nc(SCc2cc(-c3ccc(C)cc3)[nH]n2)[nH]c1=O` [Compound I-21] showed a CC50 at 3 days [1, 2] of 82.8 µM and an EC50 (HIV-1IIIB) of 0.074 µM.
For `CCc1c(Cc2cc(F)cc(F)c2)nc(SCc2cc(-c3ccc(F)cc3)[nH]n2)[nH]c1=O` [Compound I-52], the CC50 at 3 days [1] was > 200 µM, the CC50 (C8166 cells; human, 3 days) was > 200 µM and the EC50 (HIV-1IIIB) was 0.097 µM.
`CCc1c(Cc2ccc3c(c2)OCO3)nc(SCc2cc(-c3ccc(F)cc3)[nH]n2)[nH]c1=O` [Compound I-50] showed a CC50 at 3 days [1] of 78 µM and an EC50 (HIV-1IIIB) of 2.97 µM.
